Experimental data taken from patent US20130079271A1, “REVERSED BIARYL SPIROAMINOOXAZOLINE ANALOGUES AS ALPHA2C ADRENERGIC RECEPTOR MODULATORS” (priority 2009, published 2013).

Target: T1, α2C receptor (Homo sapiens, UniProt P18825)
T1 sequence (P18825 1-462): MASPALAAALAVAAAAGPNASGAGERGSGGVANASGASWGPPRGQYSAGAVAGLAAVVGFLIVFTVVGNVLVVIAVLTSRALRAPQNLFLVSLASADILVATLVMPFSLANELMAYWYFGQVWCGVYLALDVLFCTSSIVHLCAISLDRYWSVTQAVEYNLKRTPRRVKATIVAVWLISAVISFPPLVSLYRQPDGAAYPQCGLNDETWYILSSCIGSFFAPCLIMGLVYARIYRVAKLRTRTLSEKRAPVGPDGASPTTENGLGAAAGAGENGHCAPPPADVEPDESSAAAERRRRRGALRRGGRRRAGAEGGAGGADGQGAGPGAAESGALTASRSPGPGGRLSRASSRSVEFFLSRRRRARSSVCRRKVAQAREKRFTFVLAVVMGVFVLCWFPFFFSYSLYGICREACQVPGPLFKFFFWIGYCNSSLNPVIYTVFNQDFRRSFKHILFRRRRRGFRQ
Assay: Efficacy agonist activity (Emax, GTPγS assay) at α2C
Type: biochemical
Settings: by definition: efficacy at α2C ≧30% Emax (GTPγS assay); functionally selective if also efficacy at α2A ≦35% Emax
Procedure: Efficacy agonist activity values (Emax, GTPγS assay) for α2A and α2C were determined by following the general procedure detailed by Umland et. al (“Receptor reserve analysis of the human α2c-adrenoceptor using [^35S]GTPγS and cAMP functional assays” European Journal of Pharmacology 2001, 411, 211-221). For the purposes of the present invention, a compound is defined to be a specific or at least functionally selective agonist of the α2C receptor subtype if the compound's efficacy at the α2C receptor is ≧30% Emax (GTPγS assay) and its efficacy at the α2A receptor is ≦35% Emax (GTPγS assay). Additionally, for the purposes of this invention, a compound is defined to be an antagonist of the α2C receptor subtype if the compound's efficacy at the α2C receptor is <30% Emax (GTPγS assay) and the Ki at the α2C receptor subtype was <500 nM, preferentially <200 nM, and most preferentially <20 nM.

SMILES | evaluated to be active or functionally selective agonists of the α2C receptor subtype
NC1=NCC2(CCc3c(cccc3-c3cncnc3)C2)O1 (racemic) [(±)-1] | active or functionally selective agonists
CN1OC2(CCc3c(cccc3-c3cncnc3)C2)N=C1N (racemic) [(±)-5] | active or functionally selective agonists
NC1=NC[C@]2(CCc3c(cccc3-c3cncnc3)C2)O1 [1f] | active or functionally selective agonists
NC1=NC[C@]2(CCc3c(cccc3-c3cncc(F)c3)C2)O1 (racemic) [compound 113] | active or functionally selective agonists
CN1OC2(CCc3cccc(-c4cncnc4)c3C2)N=C1N (racemic) [(±)-5B] | active or functionally selective agonists
CN1OC2(CCc3ccc(-c4cncnc4)cc3C2)N=C1N (racemic) [(±)-5F] | active or functionally selective agonists
NC1=NCC2(CCc3c(cccc3-c3cncc(F)c3)C2)O1 (racemic) [(±)-108] | active or functionally selective agonists
NC1=NCC2(CCc3c(cccc3-c3cc(F)cc(F)c3)C2)O1 (racemic) [(±)-104] | active or functionally selective agonists
NC1=NC[C@]2(CCc3c(cccc3-c3cc(F)cc(F)c3)C2)O1 [compound 112] | active or functionally selective agonists
